# Test system: 3T3-L1 cells
# Experiment: Glucose-uptake test (2-DOG uptake) in 3T3-L1 cells
# Format: cell-based
# Details: Mus musculus, 3T3-L1, 24 h, 50 μg/ml, cpm divided by amount of proteins, read-out: 2-DOG Uptake (%) at a concentration of 50 μg/ml
# Experimental: Glucose-uptake tests as a means for screening compounds for the effect of reducing the blood sugar level were carried out according to the following procedures. 1) Cell: The following cells were used. 3T3-L1 (purchased from Dainippon Pharmaceutical Co. Ltd.) 2) Reagents: The following reagents were used. DMEM (GIBCO); FBS (GIBCO); […] DMSO: dimethylsulfoxide (Wako Pure Chemical Co., Ltd.); ACS2 (Amersham); urea (Wako Pure Chemical Co., Ltd.); protein-determining kit (Bio Rad Code No.). 3) Instrument: The following instrument was used in the test. 24-well plate (Falcon) 3T3-L1 cells were dispersed in a 10% FBS-containing DME medium in a cell concentration of 10000 cells/ml, the resulting cell suspension was dispensed into a 24-well plate in an amount of 1 ml per well and the cells were cultivated in a 5% CO2 -incubator at 37° C. for 5 days. After soaking up the medium in the wells, the plate was washed once with PBS in an amount of 2 ml/well. […] The cells were cultivated in a sample compound-containing medium at 37° C. for 24 hours in a 5%-CO2 -incubator. After the cultivation, the medium was soaked up and the plate was washed three times with 2 ml/well each of PBS. […] After washing with 2 ml/well of PBS, the PBS was sufficiently soaked up. […] The lysate was also inspected for the amount of proteins using 0.2 ml out of the rest of the lysate, according to the microassay method using a protein-determining kit.
row,Structure (SMILES),activity at 50 µg/mL
1,"Cc1c(C)c2c(c(C)c1O)CCC(C)(COc1ccc(CC3SC(=O)NC3=O)cc1)O2 (racemic) [CS-045, (±)5-[4(6-hydroxy-2,5,7,8-tetramethylchroman-2-yl-methoxy)benzyl2,4-thazolidinedione, reference compound]",172%
2,"O=C1NC(=O)C(=Cc2cccc3c2ccn3Cc2ccccc2)S1 [Example 2, 5-(1-benzylindol-4-yl)methylene-2,4-thiazolidinedione]",182%
3,"O=C1NC(=O)C(=Cc2cccc3c2ccn3Cc2ccncc2)S1 [Example 5, 5-[1-(4-picolyl)indol-4-yl]methylene-2,4-thiazolidinedione]",227%
4,"O=C1NC(=O)C(Cc2cccc3c2ccn3Cc2ccncc2)S1 (stereo not drawn) [Example 6, 5-[1-(4-picolyl)indol-4-yl]methyl-2,4-thiazolidinedione]",166%
5,"COC(=O)c1ccc(Cn2ccc3c(C=C4SC(=O)NC4=O)cccc32)cc1 [Example 8, 5-[1-(4-methoxycarbonylbenzyl)indol-4-yl]methylene-2,4-thiazolidinedione]",172%
6,"COC(=O)c1ccc(Cn2ccc3c(CC4SC(=O)NC4=O)cccc32)cc1 (stereo not drawn) [Example 9, 5-[1-(4-methoxycarbonylbenzyl)indol-4-yl]methyl-2,4-thiazolidinedione]",180%
7,"O=C1NC(=O)C(Cc2cccc3c2ccn3C(=O)Cc2ccccc2)S1 (stereo not drawn) [Example 13, 5-(1-phenylacetylindol-4-yl)methyl-2,4-thiazolidinedione]",150%
8,"O=C1NC(=O)C(Cc2cccc3c2ccn3S(=O)(=O)c2ccc(F)cc2)S1 (stereo not drawn) [Example 21, 5-[1-(4-fluorobenzenesulfonyl)indol-4-yl]-methyl-2,4-thiazolidinedione]",162%
9,"Cc1ccc(S(=O)(=O)n2ccc3c(CC4SC(=O)NC4=O)cccc32)cc1 (stereo not drawn) [Example 24, 5-[1-(p-toluenesulfonyl)indol-4-yl]-methyl-2,4-thiazolidinedione]",186%
10,"Cc1oc(-c2ccccc2)nc1Cn1ccc2c(C=C3SC(=O)NC3=O)cccc21 [Example 31, 5-{1-[(5-methyl-2-phenyloxazol-4-yl)methyl]indol-4-yl}methylene-2,4-thiazolidine-dione]",208%
11,"Cc1oc(-c2ccccc2)nc1Cn1ccc2c(CC3SC(=O)NC3=O)cccc21 (stereo not drawn) [Example 32, 5-{1-[(5-methyl-2-phenyloxazol-4-yl)methyl]indol-4-yl}methyl-2,4-thiazolidinedione]",215%
12,"O=C1NC(=O)C(Cc2cccc3c2ccn3Cc2cccc(F)c2)S1 (stereo not drawn) [Example 50, 5-[1-(3-fluorobenzyl)indol-4-yl]-methyl-2,4-thiazolidinedione]",201%
13,"O=C1NC(=O)C(Cc2cccc3c2ccn3Cc2cccc(F)c2F)S1 (stereo not drawn) [Example 55, 5-[1-(2,3-difluorobenzyl)indol-4-yl]-methyl-2,4-thiazolidinedione]",180%
14,"O=C1NC(=O)C(Cc2cccc3c2ccn3Cc2cc(F)ccc2F)S1 (stereo not drawn) [Example 62, 5-[1-(2,5-difluorobenzyl)indol-4-yl]-methyl-2,4-thiazolidinedione]",192%
15,"O=C1NC(=O)C(Cc2cccc3c2ccn3Cc2ccc(F)c(F)c2)S1 (stereo not drawn) [Example 68, 5-[1-(3,4-difluorobenzyl)indol-4-yl]-methyl-2,4-thiazolidinedione]",202%
16,"O=C1NC(=O)C(Cc2cccc3c2ccn3Cc2cc(F)cc(F)c2)S1 (stereo not drawn) [Example 71, 5-[1-(3,5-difluorobenzyl)indol-4-yl]-methyl-2,4-thiazolidinedione]",250%
17,"O=C1NC(=O)C(Cc2cccc3c2ccn3Cc2ccccc2C(F)(F)F)S1 (stereo not drawn) [Example 74, 5-[1-(2-trifluoromethylbenzyl)indol-4-yl]methyl-2,4-thiazolidinedione]",210%
18,"O=C1NC(=O)C(Cc2cccc3c2ccn3Cc2cccc(C(F)(F)F)c2)S1 (stereo not drawn) [Example 77, 5-[1-(3-trifluoromethylbenzyl)indol-4-yl]methyl-2,4-thiazolidinedione]",185%

# Reference: patent US5811439A, “Thiazolidinedione derivatives, method for preparing the derivatives and pharmaceutical compositions containing same” (Senga Pharmaceutical Laboratory Inc., priority 1995, dated 1998)
